Data taken from PMC12257413, “Discovery of a Novel sp^3‑Rich M1 Positive Allosteric Modulators (PAMs) Chemotype via Scaffold Hopping” (ACS Medicinal Chemistry Letters, 2025).

Key:
[1] = target: T1, rat muscarinic receptor subtype 1 (M1) (Rattus norvegicus, UniProt P08482); assay: Calcium mobilization assay in rM1-CHO cells, PAM activity with EC20 acetylcholine; assay type: cell-based; conditions: for EC50: read-out: rM1 pEC50 ± SEM (converted)
T1 construct: expressed in transfected cells
T1 sequence (P08482 1-460): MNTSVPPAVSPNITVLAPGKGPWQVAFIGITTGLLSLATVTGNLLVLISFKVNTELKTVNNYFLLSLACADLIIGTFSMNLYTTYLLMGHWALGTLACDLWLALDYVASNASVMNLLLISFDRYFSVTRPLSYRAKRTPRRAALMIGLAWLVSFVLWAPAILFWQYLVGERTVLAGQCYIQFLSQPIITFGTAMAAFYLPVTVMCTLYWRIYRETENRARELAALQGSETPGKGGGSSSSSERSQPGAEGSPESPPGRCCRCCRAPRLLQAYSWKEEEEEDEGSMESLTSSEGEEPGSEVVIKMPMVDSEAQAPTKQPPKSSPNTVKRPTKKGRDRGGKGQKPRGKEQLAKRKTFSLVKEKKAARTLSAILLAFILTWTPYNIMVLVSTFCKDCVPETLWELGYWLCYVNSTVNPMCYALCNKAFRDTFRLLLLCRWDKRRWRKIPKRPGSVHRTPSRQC
Procedure: page 2: Procedures for Biological Experiments Calcium mobilization assays: To measure the functional activity of positive allosteric modulator (PAM) compounds in a cellular assay, human or rat muscarinic receptor subtype 1 (M1) was stably expressed in the Chinese hamster ovary (CHO) cells to evoke an increase in intracellular calcium to an EC20 concentration of acetylcholine (ACh) agonist. The stable M1-CHO cells were cultured in F12 medium containing 10% fetal bovine serum, 20 mM HEPES, 100 units/mL antibiotics/antimycotic, 0.5 mg/ml G418. All reagents used were from Life Technologies (Carlsbad, CA) unless otherwise noted. Briefly, the day before the assay, stable M1-CHO cells (15,000 cells/20 μL/well) were plated in black-walled, clear-bottomed, 384 well plates (Greiner Bio-One, Monroe, NC) in the culture medium without G418, and then incubated overnight at 37 °C in the presence of 5% CO2. The next day, calcium assay buffer (Hank’s balanced salt solution (HBSS), 20 mM HEPES, 2.5 mM Probenecid, 4.16 mM sodium bicarbonate (Sigma-Aldrich, St. Louis, MO) was prepared to dilute […] calcium indicator dye. […] curves in DMSO using the Bravo Liquid Handler (Agilent, Santa Clara, CA), transferred to a 384 well daughter plates using an Echo acoustic liquid handler (Beckman Coulter, Indianapolis, Indiana), and diluted in assay Buffer to a 2X final concentration. The agonist plates were prepared using acetylcholine (ACh, Sigma-Aldrich, St. Louis, MO) concentrations for the EC20 and ECMAX responses by diluting in assay buffer to a 5X final concentration. The 2X dye solution (2.3 µM) was prepared by mixing a 2.3 mM Fluo-4-AM stock in DMSO with 10% (w/v) pluronic acid F- 127 in a 1:1 ratio in assay buffer. Using a microplate washer (BioTek, Winooski, VT), cells were washed with assay buffer for 3 times to remove medium. After the final wash, 20 μL of assay buffer remained in the cell plates. Immediately, 20 μL of the 2X dye solution (final 1.15 µM) was added to each well of the cell plate using a Multidrop Combi dispenser (Thermo Fisher, Waltham, MA). After cells were incubated with the dye solutions for 45 min at 37 °C in the presence of 5% CO2, the dye solutions were removed and replaced with assay buffer using a microplate washer, leaving 20 μL of assay buffer in the cell plate. The compound, agonist, and cell plates were placed inside the Functional Drug Screening System uCell (FDSS uCell, Hamamatsu, Japan) to measure the calcium flux. The triple add protocol was used to measure Ca kinetics; Compound, ACh for EC20, and ACh for ECMAX adds in an order. Briefly, after establishment of a fluorescence baseline S2 page 3: for 2 seconds (excitation, 480 nm; emission, 530 nm), first add occurred by adding 20 µL of test compound to the cells, and the response was measured for 140 seconds. This is followed by second add; 10 µL (5X) of an EC20 concentration of ACh agonist was added to the cells, and the response of the cells was measured for 125 seconds. Immediately, the third add occurred by adding 12 ul assay buffer or 5X of an EC max concentration of ACh and the response of the cells was measured for 90 seconds. Assay buffer was added to the wells that incubated with compounds followed by EC20 concentration of ACh. Agonists containing ECmax concentration of ACh were added to the wells that incubated with DMSO and assay buffer from the 1st and 2nd adds to measure maximum Ca responses (ECmax). Calcium fluorescence was recorded as fold over basal fluorescence and raw data were normalized to the maximal response to ACh agonist. […]

[2] = Brain homogenate binding by equilibrium dialysis; assay type: in vitro ADME; conditions: fraction unbound in rat brain homogenate
Procedure: A similar approach was used to determine the degree of brain homogenate binding, which employed the same methodology and procedure with the following modifications: 1) a final compound concentration of 1 μM was used, 2) naïve rat brains were homogenized in DPBS (1:3 composition of brain: DPBS, w/w) using a Mini-Bead Beater™ machine in order to obtain brain homogenate, which was then treated in the same manner as the plasma samples in the previously described plasma protein binding assay. […]
same manner as the plasma samples in the previously described plasma protein binding assay. Fraction unbound for both plasma and brain samples was determined using Equation 4.
Equation 4 Determination of fraction unbound in plasma.
The diluted fraction unbound (fu2) in brain was calculated in the same manner by using brain homogenate rather than plasma. Undiluted fraction unbound for the brain was calculated using Equation 5 […]
Equation 5 Determination of fraction unbound in brain. […]
Human or rat hepatic microsomes (0.5 mg/mL) and 1 µM test compound were incubated in 100 mM potassium phosphate pH 7.4 buffer with 3 mM MgCl 2 at 37 °C with constant shaking. […] The in vitro half-life (1/2, min, Eq. 1), intrinsic clearance (CL int, mL/min/kg, Eq. 2), and subsequent predicted hepatic clearance (CLhep, mL/min/kg, Eq. 3) was determined employing the following equations: […]

Row | rM1 %ACh Max ± SEM [1] | EC50 [1] | Rat fubrain [2] | SMILES
1 | 83 ± 4.1 %ACh Max | 347 nM | 0.08 | Cn1cc(-c2ccc(Cc3cc(C(=O)N[C@H]4CCOC[C@@H]4O)nn3C3CCCC3)cc2)cn1 [17g]
2 | 83 ± 2.8 %ACh Max | 490 nM | 0.01 | Cn1cc(-c2ccc(Cc3cc(C(=O)N[C@H]4CCCC[C@@H]4O)nn3C3CCCC3)cc2)cn1 [17k]
